Experiments:
tyrosinase = biological target: T1, tyrosinase (Mus musculus, UniProt P11344); test: Inhibitory effect on tyrosinase activity in murine B16 melanoma cells; assay type: cell-based; details: B16 F10 cells, 3 days, read-out: Inhibition rate of tyrosinase activity (%)
T1 construct: endogenous in cells; host or cells: murine melanoma B16 F10 cells
T1 sequence (P11344 19-533): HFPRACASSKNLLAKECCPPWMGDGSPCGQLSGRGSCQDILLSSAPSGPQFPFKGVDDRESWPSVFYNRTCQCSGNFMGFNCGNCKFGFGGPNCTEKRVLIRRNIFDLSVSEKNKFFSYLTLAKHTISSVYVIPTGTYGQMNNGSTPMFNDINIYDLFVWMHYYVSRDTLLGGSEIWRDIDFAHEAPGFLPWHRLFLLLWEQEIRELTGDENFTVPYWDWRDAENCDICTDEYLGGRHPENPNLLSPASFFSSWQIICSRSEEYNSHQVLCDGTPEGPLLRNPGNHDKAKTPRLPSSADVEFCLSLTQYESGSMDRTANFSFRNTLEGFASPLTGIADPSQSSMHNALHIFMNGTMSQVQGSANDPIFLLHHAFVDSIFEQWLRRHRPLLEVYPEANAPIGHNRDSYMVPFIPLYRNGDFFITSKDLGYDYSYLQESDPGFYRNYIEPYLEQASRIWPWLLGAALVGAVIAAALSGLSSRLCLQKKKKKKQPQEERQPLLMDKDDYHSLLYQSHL
Procedure: In order to confirm the inhibitory effect of artemisinine on tyrosinase activity, murine B16 melanoma cells were used to perform the following experiment.
Murine melanoma (B16 F10) cells were inoculated on 6 well plates containing DMEM media supplemented with 10% FBS (1×10^5 per well), and cultured in 5% CO2 at 37° C. until reaching about 80% confluency. Then, media was removed from the cells, replaced with fresh media, and cultured in 5% CO2 at37° C. for 3 days. […] Media was removed from the cells, and the cells were washed with PBS, followed by trypsin treatment. The cells were recovered, and counted using a hematocytometer. Then, the cells were centrifuged at 5,000 to 10,000 rpm for 10 min, and the supernatant was removed to obtain a pellet. The pellet was suspended in a lysis buffer, and centrifuged at 12,000 rpm for 10 min to collect the supernatant. Absorbance was determined at 492 nm using a microplate reader to assess the tyrosinase activity per cell. As a control group, arbutin was used.

[1] = test system: brown guinea pigs (Tortoiseshell guinea pigs); test: Whitening effect on UV-induced pigmentation in brown guinea pigs (chromameter L*); assay type: in vivo; details: topical once or twice a day for 50 days, UV-pigmented guinea pig skin
Text: In order to confirm the whitening effect of artemisinine in animals, brown guinea pigs (Tortoiseshell guinea pigs), which are known to increase pigmentation upon exposure to UV like human, were used to perform the following experiment.
(§1) To cause pigmentation in the brown guinea pig by UV, light-shielding aluminum foil with windows of 3×3 cm^2 was adhered to hair-removed abdominal skin of brown guinea pig, and then UV light was irradiated thereon with a SE lamp (wavelength 290-320 nm, Toshiba) (total irradiation energy=1350 mJ/cm^2). After UV irradiation, the aluminum foil was removed, and then the samples (artemisinine and arbutin) were applied as follows. […] From the maximum, each sample was applied. Applications were performed once or twice a day for 50 days. The samples were dissolved and diluted in a certain solvent (a mixed solvent of propylene glycol:ethanol:water=5:3:2) and applied with a swab. Another region was applied with the solvent only as a control. Occurrence of cumulative irritation also was examined.
The degree of skin pigmentation was determined using a chromameter (MINOLTA CR2002) to evaluate the effects. L*A*B* colorimetric system is used to classify color, and an L* value was used as standard in the present invention. The L* value was corrected using white board standard, and measured more than five times at one region, repeatedly. Pigmentation was evenly distributed. Skin color differences (ΔL*) between initial application point and terminal application point were obtained by using the following Mathematical Equation 1, and then using these values, their effects of the applied samples were evaluated.
ΔL*=L*value at terminal application day−L*value at initial application day [Mathematical Equation 1]
ΔL* values were obtained at sample application region and control application region and compared. From the result, the whitening effects of the samples can be evaluated.

[2] = test system: Murine melanoma (B16 F10) cells; test: Inhibitory effect on melanin synthesis in murine B16 melanoma cells; assay type: cell-based; details: Mus musculus, 72 h, 3 days, read-out: Inhibition rate of melanin synthesis (%)
Procedure: In order to confirm the inhibitory effect of artemisinine on melanin synthesis, murine B16 melanoma cells were used to perform the following experiment.
Artemisinine used in the present experiment was purchased from Sigma.
Murine melanoma (B16 F10) cells were inoculated on 6 well plates containing DMEM media supplemented with 10% FBS (fetal bovine serum) (1×10^5 per well), and cultured in 5% CO2 at37° C. until reaching about 80% confluency. Then, media was removed from the cells, replaced with fresh media, and cultured in 5% CO2 at 37° C. for 3 days. […] Media was removed from the cells, and the cells were washed with PBS (phosphate buffered saline), followed by trypsin treatment. The cells were recovered, and counted using a hemocytometer. Then, the cells were centrifuged at 5,000 to 10,000 rpm for 10 min, and the supernatant was removed to obtain a pellet. The pellet was dried at 60° C., and suspended in 100 […] of 1 M sodium hydroxide solution containing 10% DMSO in a 60° C. water bath to obtain melanin in the cells. Absorbance was determined at 490 nm using a microplate reader to assess the melanin content per cell. As a control group, a known inhibitor of melanin synthesis, arbutin, was used.

[3] = test system: Murine melanoma (B16 F10) cells; test: Cytotoxicity at treatment concentrations in B16 F10 cells; assay type: cell-based; details: 10 μM, 50 μM and 100 μM
[4] = test system: brown guinea pigs (Tortoiseshell guinea pigs); test: Cumulative irritation examined in brown guinea pigs; assay type: in vivo; details: topical application for 50 days, guinea pig
Text: as §1

SMILES | inhibition at 100 µM (tyrosinase) | Whitening effect (ΔL*) ([1]; 1.0 %) | inhibition at 100 µM [2] | inhibition at 10 µM (tyrosinase; 10 μM) | inhibition at 50 µM (tyrosinase; 50 μM) | Cytotoxicity [3] | Whitening effect (ΔL*) ([1]; 0.2 %) | Cumulative irritation [4] | inhibition at 10 µM ([2]; 10 μM) | inhibition at 50 µM ([2]; 50 μM)
OC[C@H]1O[C@@H](Oc2ccc(O)cc2)[C@H](O)[C@@H](O)[C@@H]1O [Arbutin, arbutin] | 45% | 0.55 | 52% | – | – | – | – | – | – | –
C[C@@H]1CC[C@H]2[C@@H](C)C(=O)O[C@@H]3O[C@@]4(C)CC[C@@H]1[C@]32OO4 [Artemisinine, artemisinine] | 67% | 0.65 | 65% | 19% | 38% | no cytotoxicity | 0.40 | no cumulative irritation | 22% | 50%
